Assay results reported in patent US20240059691A1 (KALVISTA PHARMACEUTICALS LIMITED, priority 2020, published 2024).

Assays:
Format in all cases: biochemical
FXa = FXa (Homo sapiens (Human), UniProt P00742); experiment: Determination of related protease inhibition: FXa (fluorogenic substrate at Km); details: 25° C.
Protocol: (§1) Determination of Related Protease Inhibition
(§2) In vitro inhibition of related proteases was determined using an ([…] assay based on standard literature methods (see e.g. Shori et al., Biochem. Pharmacol., 1992, 43, 1209; Bouckaert et al., European Journal of Medicinal Chemistry 110 (2016) 181). Human serine protease enzymes Plasma Kallikrein, KLK1, FXa, Plasmin, Thrombin and Trypsin were assayed for enzymatic activity using an appropriate fluorogenic substrate at Km concentration, FXIa at fixed substrate concentration of 100 μM, and various concentrations of the test compound. Protease activity was measured by monitoring the accumulation of liberated fluorescence from the substrate over […]. The linear rate of fluorescence increase per minute was expressed as percentage (%) activity. IC50 values were calculated as the concentration of inhibitor giving 50% inhibition of the uninhibited enzyme activity (100%).

KLK1 = KLK1 (Homo sapiens (Human), UniProt P06870); experiment: Determination of related protease inhibition: KLK1 (fluorogenic substrate at Km); details: 25° C.
How it was run: (§3)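 The enzyme from human source is assayed in the presence of various test compound concentrations, with substrate held at its Km. Accumulating fluorescence is tracked for 5 min at 25 °C, and the concentration halving uninhibited activity is reported as IC50.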

Human Factor XIIa = Human Factor XIIa (Homo sapiens (Human), UniProt P00748); experiment: Determination of FXIIa inhibition (fluorogenic substrate H-DPro-Phe-Arg-AFC, IC50 assay); details: substrate H-DPro-Phe-Arg-AFC at Km, 25° C.; class scale A-G
How it was run: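 Human FXIIa incubated at 25° C with fluorogenic substrate H-DPro-Phe-Arg-AFC at its Km concentration and varying compound concentrations. Fluorescence release monitored over 5 min at 25° C; linear rate expressed as % of uninhibited activity to derive IC50.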

Plasma Kallikrein = Plasma Kallikrein (Homo sapiens (Human), UniProt P03952); experiment: Determination of related protease inhibition: Plasma Kallikrein (fluorogenic substrate at Km); details: 25° C., read-out: IC50 (human PKal)
How it was run: as §3

Thrombin = Thrombin (Homo sapiens (Human), UniProt P00734); experiment: Determination of related protease inhibition: Thrombin (fluorogenic substrate at Km); details: 25° C.
Protocol: as §1, §2

Sequence of KLK1 (P06870 25-262): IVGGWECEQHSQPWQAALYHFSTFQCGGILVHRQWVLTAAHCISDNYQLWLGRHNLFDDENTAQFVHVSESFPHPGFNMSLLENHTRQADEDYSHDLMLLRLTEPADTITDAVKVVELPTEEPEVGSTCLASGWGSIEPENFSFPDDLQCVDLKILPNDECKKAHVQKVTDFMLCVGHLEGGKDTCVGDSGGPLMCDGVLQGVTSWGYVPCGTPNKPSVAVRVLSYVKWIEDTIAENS
Sequence of Human Factor XIIa (P00748 373-615): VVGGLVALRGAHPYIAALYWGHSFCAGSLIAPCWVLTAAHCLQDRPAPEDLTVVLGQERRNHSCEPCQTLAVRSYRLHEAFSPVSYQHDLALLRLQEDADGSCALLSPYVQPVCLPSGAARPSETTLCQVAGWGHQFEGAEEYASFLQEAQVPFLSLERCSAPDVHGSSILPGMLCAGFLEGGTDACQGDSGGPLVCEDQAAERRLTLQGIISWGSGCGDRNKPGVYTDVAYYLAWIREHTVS
Sequence of FXa (P00742 235-488): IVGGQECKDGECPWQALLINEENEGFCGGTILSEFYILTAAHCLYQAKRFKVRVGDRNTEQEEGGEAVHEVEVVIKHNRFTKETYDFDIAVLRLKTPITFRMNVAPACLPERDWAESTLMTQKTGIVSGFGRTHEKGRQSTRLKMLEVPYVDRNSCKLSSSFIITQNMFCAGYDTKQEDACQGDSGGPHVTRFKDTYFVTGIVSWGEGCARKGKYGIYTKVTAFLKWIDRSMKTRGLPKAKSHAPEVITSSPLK
Sequence of FXa (P00742 41-179 partner): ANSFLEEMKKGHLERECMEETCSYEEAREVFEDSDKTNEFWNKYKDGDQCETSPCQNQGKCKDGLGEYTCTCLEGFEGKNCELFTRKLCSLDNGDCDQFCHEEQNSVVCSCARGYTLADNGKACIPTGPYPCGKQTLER
Sequence of Plasma Kallikrein (P03952 391-638): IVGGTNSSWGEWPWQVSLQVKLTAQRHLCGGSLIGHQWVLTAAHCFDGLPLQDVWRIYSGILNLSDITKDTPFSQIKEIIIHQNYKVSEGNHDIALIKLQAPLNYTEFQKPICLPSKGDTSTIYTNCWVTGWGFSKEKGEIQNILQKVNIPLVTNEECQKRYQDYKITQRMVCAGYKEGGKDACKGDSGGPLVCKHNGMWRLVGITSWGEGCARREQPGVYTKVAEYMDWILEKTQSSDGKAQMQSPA
Sequence of Plasma Kallikrein (P03952 20-390 partner): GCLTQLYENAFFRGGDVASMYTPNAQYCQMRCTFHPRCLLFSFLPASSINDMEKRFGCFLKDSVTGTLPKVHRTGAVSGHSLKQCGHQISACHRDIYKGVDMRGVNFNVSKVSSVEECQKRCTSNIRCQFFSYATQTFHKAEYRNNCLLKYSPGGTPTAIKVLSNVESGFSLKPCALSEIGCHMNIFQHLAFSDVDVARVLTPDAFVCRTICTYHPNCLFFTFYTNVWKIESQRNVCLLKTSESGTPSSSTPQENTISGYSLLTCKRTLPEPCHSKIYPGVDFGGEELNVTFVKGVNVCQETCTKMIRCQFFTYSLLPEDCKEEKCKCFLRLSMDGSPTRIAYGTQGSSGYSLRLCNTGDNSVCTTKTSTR

IC50 (FXa) [µM] | IC50 (KLK1) [µM] | IC50 (Human Factor XIIa) [nM] | IC50 (Plasma Kallikrein) [µM] | IC50 (Thrombin) [µM] | SMILES
10 to 40 | 0.3 to 1 | 300 to 1000 | 10 to 40 | 3 to 10 | CN1CCN(CCc2ccc(CNc3ccc4c(N)nccc4c3)c(F)c2)CC1 [Example 2181, 6-N-({2-fluoro-4-[2-(4-methylpiperazin-1-yl)ethyl]phenyl}methyl)isoquinoline-1,6-diamine]
> 40 | 10 to 40 | 300 to 1000 | > 40 | > 40 | CN1CCN(CCc2ccc(CNc3cccc4c(N)nccc34)c(F)c2)CC1 [Example 2182, 5-N-({2-fluoro-4-[2-(4-methylpiperazin-1-yl)ethyl]phenyl}methyl)isoquinoline-1,5-diamine]
> 40 | 10 to 40 | 300 to 1000 | > 40 | > 40 | Nc1nccc2c(NCc3ccc(CCN4CCOCC4)cc3F)cccc12 [Example 2183, N5-[[2-fluoro-4-(2-morpholinoethyl)phenyl]methyl]isoquinoline-1,5-diamine]
> 40 | 10 to 40 | 1000 to 3000 | > 40 | > 40 | CN1CC(OCc2ccc(CNc3cccc4c(N)nccc34)c(F)c2)CCC1=O (stereo not drawn) [Example 2209, 5-[[4-[[(1-amino-5-isoquinolyl)amino]methyl]-3-fluoro-phenyl]methoxy]-1-methyl-piperidin-2-one]
> 40 | 10 to 40 | 10000 to 40000 | > 40 | > 40 | Nc1ncc(Cl)c2cc(NCc3ccc(CCN4CCOCC4)cc3F)ccc12 [Example 2215, 4-chloro-6-N-({2-fluoro-4-[2-(morpholin-4-yl)ethyl]phenyl}methyl)isoquinoline-1,6-diamine]
0.01 to 0.1 | 0.3 to 1 | 100 to 300 | 3 to 10 | 0.3 to 1 | CN1CC2C(COc3cc(CNc4ccc5c(N)nccc5c4)ccn3)C2C1 (stereo not drawn) [Example 4269, N6-((2-((3-methyl-3-azabicyclo[3.1.0]hexan-6-yl)methoxy)pyridin-4-yl)methyl)isoquinoline-1,6-diamine]
3 to 10 | 10 to 40 | 3000 to 10000 | > 40 | > 40 | CN1CCC(COc2cc(CNc3nccc4c(N)ccnc34)ccn2)CC1 [Example 4273, N8-((2-((1-methylpiperidin-4-yl)methoxy)pyridin-4-yl)methyl)-1,7-naphthyridine-4,8-diamine]
0.3 to 1 | 1 to 3 | 1000 to 3000 | 10 to 40 | 0.3 to 1 | CC(=O)N1CC2CC1CC2COc1cc(CNc2ccc3c(N)nccc3c2)ccn1 (stereo not drawn) [Example 4275, 1-(5-(((4-(((1-aminoisoquinolin-6-yl)amino)methyl)pyridin-2-yl)oxy)methyl)-2-azabicyclo[2.2.1]heptan-2-yl)ethan-1-one]
0.3 to 1 | 1 to 3 | 100 to 300 | 3 to 10 | 1 to 3 | CN1CC2CC1CC2COc1cc(CNc2ccc3c(N)nccc3c2)ccn1 (stereo not drawn) [Example 4277, N6-((2-((2-methyl-2-azabicyclo[2.2.1]heptan-5-yl)methoxy)pyridin-4-yl)methyl)isoquinoline-1,6-diamine]
> 40 | 10 to 40 | 3000 to 10000 | > 40 | > 40 | CN1C[C@@H](COc2cc(CNc3cccc4c(N)nccc34)ccn2)OC1=O [Example 4279, (5S)-5-{[(4-{[(1-aminoisoquinolin-5-yl)amino]methyl}pyridin-2-yl)oxy]methyl}-3-methyl-1,3-oxazolidin-2-one]
> 40 | 3 to 10 | 300 to 1000 | > 40 | > 40 | CN1CCC(COc2cc(CNc3cccc4c(N)nccc34)cc(C(F)(F)F)n2)CC1 [Example 4281, 5-N-[[2-[(1-methyl-4-piperidyl)methoxy]-6-(trifluoromethyl)-4-pyridyl]methyl]isoquinoline-1,5-diamine]

More lines, now with the values behind:

SMILES | IC50 (FXa) [µM] | IC50 (KLK1) [µM] | IC50 (Human Factor XIIa) [nM] | IC50 (Plasma Kallikrein) [µM] | IC50 (Thrombin) [µM]
CN1CCN(CCc2ccc(CNc3ccc4c(N)ncc(Cl)c4c3)c(F)c2)CC1 [Example 2184, 4-Chloro-N6-[[2-fluoro-4-[2-(4-methylpiperazin-1-yl)ethyl]phenyl]methyl]isoquinoline-1,6-diamine] | > 40 | 3 to 10 | 3000 to 10000 | > 40 | > 40
CN1CC2(CC(OCc3ccc(CNc4cccc5c(N)nccc45)c(F)c3)C2)C1 [Example 2206, 5-N-[[2-fluoro-4-[(2-methyl-2-azaspiro[3.3]heptan-6-yl)oxymethyl]phenyl]methyl]isoquinoline-1,5-diamine] | > 40 | 10 to 40 | 3000 to 10000 | 10 to 40 | > 40
Cn1ccnc1COCc1ccc(CNc2cccc3c(N)nccc23)c(F)c1 [Example 2207, N5-(2-fluoro-4-(((1-methyl-1H-imidazol-2-yl)methoxy)methyl)benzyl)isoquinoline-1,5-diamine] | 10 to 40 | 10 to 40 | 1000 to 3000 | 3 to 10 | 10 to 40
Cn1ccnc1CCOCc1ccc(CNc2cccc3c(N)nccc23)c(F)c1 [Example 2208, N5-[[2-fluoro-4-[2-(1-methylimidazol-2-yl)ethoxymethyl]phenyl]methyl]isoquinoline-1,5-diamine] | 10 to 40 | 10 to 40 | 1000 to 3000 | > 40 | 10 to 40
Cn1ccnc1CC(=O)NCc1ccc(CNc2cccc3c(N)nccc23)c(F)c1 [Example 2211, N-(4-(((1-aminoisoquinolin-5-yl)amino)methyl)-3-fluorobenzyl)-2-(1-methyl-1H-imidazol-2-yl)acetamide] | > 40 | 10 to 40 | 10000 to 40000 | > 40 | > 40
CC(C)N1C[C@H]2C[C@@H]1CN2CCc1ccc(CNc2ccc3c(N)ncc(Cl)c3c2)c(F)c1 [Example 2214, 4-chloro-6-N-[(2-fluoro-4-{2-[(1R,4R)-5-isopropyl-2,5-diazabicyclo[2.2.1]heptan-2-yl]ethyl}phenyl)methyl]isoquinoline-1,6-diamine] | > 40 | 3 to 10 | 300 to 1000 | 10 to 40 | > 40
CN1[C@@H]2COC[C@H]1CC(OCc1ccc(CNc3cccc4c(N)nccc34)c(F)c1)C2 (stereo partly drawn) [Example 2254, N5-(2-fluoro-4-((((1R,5S)-9-methyl-3-oxa-9-azabicyclo[3.3.1]nonan-7-yl)oxy)methyl)benzyl)isoquinoline-1,5-diamine] | 10 to 40 | 10 to 40 | 100 to 300 | > 40 | > 40
CN1CC2CCC(C1)C2COc1cc(CNc2ccc3c(N)nccc3c2)ccn1 (stereo not drawn) [Example 4270, N6-((2-((3-methyl-3-azabicyclo[3.2.1]octan-8-yl)methoxy)pyridin-4-yl)methyl)isoquinoline-1,6-diamine] | 0.01 to 0.1 | 0.3 to 1 | 10 to 100 | 3 to 10 | 1 to 3
CN1CCC(COc2cc(CNc3ccnc4c(N)nccc34)ccn2)CC1 [Example 4272, 4-N-[[2-[(1-methyl-4-piperidyl)methoxy]-4-pyridyl]methyl]-1,7-naphthyridine-4,8-diamine] | > 40 | > 40 | 3000 to 10000 | > 40 | > 40
CC(=O)N1CC2CC1CC2COc1cc(CNc2cccc3c(N)nccc23)ccn1 (stereo not drawn) [Example 4274, 1-(5-(((4-(((1-Aminoisoquinolin-5-yl)amino)methyl)pyridin-2-yl)oxy)methyl)-2-azabicyclo[2.2.1]heptan-2-yl)ethan-1-one] | 1 to 3 | 3 to 10 | 1000 to 3000 | > 40 | 10 to 40
CN1CC2CC1CC2COc1cc(CNc2cccc3c(N)nccc23)ccn1 (stereo not drawn) [Example 4276, 5-N-{[2-({2-methyl-2-azabicyclo[2.2.1]heptan-5-yl}methoxy)pyridin-4-yl]methyl}isoquinoline-1,5-diamine] | 3 to 10 | 3 to 10 | 300 to 1000 | > 40 | > 40
CN1CC2CCC(C1)C2COc1cc(CNc2cccc3c(N)nccc23)ccn1 (stereo not drawn) [Example 4278, 5-N-[[2-[(3-methyl-3-azabicyclo[3.2.1]octan-8-yl)methoxy]-4-pyridyl]methyl]isoquinoline-1,5-diamine] | 1 to 3 | 3 to 10 | 100 to 300 | > 40 | > 40
CN1C[C@H](COc2cc(CNc3cccc4c(N)nccc34)ccn2)OC1=O [Example 4280, (5R)-5-{[(4-{[(1-aminoisoquinolin-5-yl)amino]methyl}pyridin-2-yl)oxy]methyl}-3-methyl-1,3-oxazolidin-2-one] | > 40 | 10 to 40 | 10000 to 40000 | > 40 | > 40
